In publication PMC7336998, “Discovery of secondary sulphonamides as IDO1 inhibitors with potent antitumour effects in vivo” (Journal of Enzyme Inhibition and Medicinal Chemistry, 2020):
Entries after “also recorded” stand apart in the source; their conditions may differ.

Legend:
IDO1 = target: T1, IDO1 (Homo sapiens, UniProt P14902); experiment: HeLa cell-based IDO1/kynurenine assay
T1 construct: a human cervical cancer cell line HeLa that endogenously expresses IDO1 upon IFN-γ treatment; endogenous in cells; host or cells: HeLa cells treated with human IFN-γ
T1 sequence (P14902 whole entry): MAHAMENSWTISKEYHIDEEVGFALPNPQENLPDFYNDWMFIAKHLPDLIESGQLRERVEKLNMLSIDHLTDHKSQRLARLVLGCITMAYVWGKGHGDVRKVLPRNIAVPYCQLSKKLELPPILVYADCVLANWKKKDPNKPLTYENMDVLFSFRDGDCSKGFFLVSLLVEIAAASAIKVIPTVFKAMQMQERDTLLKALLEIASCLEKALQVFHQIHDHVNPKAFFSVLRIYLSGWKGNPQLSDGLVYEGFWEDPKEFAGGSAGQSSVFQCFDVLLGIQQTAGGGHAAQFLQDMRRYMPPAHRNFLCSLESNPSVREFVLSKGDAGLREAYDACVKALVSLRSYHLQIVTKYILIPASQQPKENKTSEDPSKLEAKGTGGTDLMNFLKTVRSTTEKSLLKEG
Description: (§1) The main bioassays performed in the study, including HeLa cell-based IDO1/kynurenine assay, Western blot analysis, T cell proliferation and Treg cell differentiation experiments, were carried out as described previously.
It is well known that IDO1 is broadly expressed in human cancers and is induced by pro-inflammatory cytokines, such as interferon gamma (IFN-γ) and tumour necrosis factor alpha (TNF-α)[41]. Here we utilised a human cervical cancer cell line HeLa that endogenously expresses IDO1 upon IFN-γ treatment to evaluate the IDO1 inhibitory activity of the synthesised compounds by measuring kynurenine secreted into the media. […] Thus, we also employed this cellular assay to detect false positive IDO1 inhibitors and cytotoxic compounds by measuring HeLa cell viability. Clinical candidate navoximod was used as an assay control.

[1] = tested on: naïve CD4+ T cells co-cultured with B16F1 cells; experiment: FoxP3+ Treg cell differentiation in B16F1-T cell co-culture (flow cytometry); type: cell-based, mouse; details: 18 μM
Description: as §1
Besides causing local tryptophan depletion, high IDO1 expression can also accumulate metabolites of kynurenine pathway. The elevated metabolites can not only induce effector T cell death directly through their cytotoxicity, but also promote the differentiation of naïve CD4^+ T cells into CD4^+ FoxP3^+ Treg cells by activating the AHR pathway. As a highly immunosuppressive subset of CD4^+ T cells, FoxP3^+ Treg cells are critical to the maintenance of immune homeostasis and are involved in tumour immune escape, thereby contributing to tumour development and progression. Therefore, we also utilised co-culture of B16F1 cells with naïve CD4^+ T cells to test whether the synthesised compounds could suppress IDO1 mediated Treg cell differentiation.
Figure 5. Compounds 5d and 8 g inhibited Treg cell differentiation in the cell co-culture system. (A) After co-cultured with B16F1 cells, T cells were collected. Surface staining was performed with CD4^+ FTTC and CD25^+ PE for 30 min at 4 °C. The cells were fixed and permeabilized with fixation buffer and permeabilization wash buffer. The intracellular staining was performed with FoxP3^+ APC for 20 min. The cells were then analysed by flow cytometry analysis. (B) Statistical analysis of result A. Data are represented as ± SEM (n = 3). *p < 0.05, **p < 0.01 vs T + B16F1. TEXT PRINTED IN THE PICTURE: (A) Navoximod: 8.1% (T + B16F1; 1.5 μM) | (A) 8g: 7.8% (T + B16F1; 18 μM) | (A) 5d: 2.1% (T + B16F1; 18 μM)

HeLa cells = experiment: HeLa cell viability by MTT at the end of the IDO1/kynurenine assay; type: cell-based, human; details: under the experimental conditions of the IDO1 assay
Excerpt: It is well known that IDO1 is broadly expressed in human cancers and is induced by pro-inflammatory cytokines, such as interferon gamma (IFN-γ) and tumour necrosis factor alpha (TNF-α)[41]. Here we utilised a human cervical cancer cell line HeLa that endogenously expresses IDO1 upon IFN-γ treatment to evaluate the IDO1 inhibitory activity of the synthesised compounds by measuring kynurenine secreted into the media. This cell-based assay, as a rapid and simple method for determination IDO1/kynurenine, is closely related to the potency of the enzyme assay and has been widely used to identify various IDO1 inhibitors[19]^,[23]^,[29]^,[42]. In addition, cytotoxic compounds can reduce cell viability, which will decrease the IDO1 levels and then lower the conversion of tryptophan to kynurenine. Thus, we also employed this cellular assay to detect false positive IDO1 inhibitors and cytotoxic compounds by measuring HeLa cell viability. Clinical candidate navoximod was used as an assay control.
Furthermore, the viability of HeLa cells was evaluated by the MTT method at the end of the assay.

B16F1 melanoma = B16F1 melanoma xenograft in BALB/c mice; type: in vivo, mouse
Description: BALB/c mice (6–8 weeks old, 18–22 g) were supplied by Model Animal Research Centre of Nanjing University (Nanjing, China). Mice were maintained under standard specific-pathogen-free (SPF) conditions (21 ± 2 °C and 12-h light: dark cycle). Animal welfare and experimental procedures were carried out strictly in accordance with the Guide for the Care and Use of Laboratory Animals (The Ministry of Science and Technology of China, 2006) and the related ethical regulations of our university. All efforts were made to minimise animals’ suffering and to reduce the number of animals used. Mouse colon cancer cells (CT26) and melanoma cells (B16F1) were cultured and collected by centrifugation (1000 rpm, 5 min) and washed twice with ice-cold PBS. Then cells were diluted to 1 × 10^7/ml and 1 × 10^6 CT26/B16F1 cells (in 0.1 ml PBS) were injected subcutaneously into the right flanks of mice. All mice formed tumours three days after injection. Then mice were randomly distributed into five groups (n = 10/8) according to tumour volumes. 5d ([…], 12.5 mg/kg) were administered (i.g) to each group respectively every day. 5-FU (25 mg/kg) and Cis-platinum (1 mg/kg) were administered (i.p) every three days. Tumour length and tumour width were measured with a Vernier calliper every three days. Tumour volumes were measured and calculated using the equation volume = a × b^2/2, where “a” is the maximal […] and “b” is maximal orthogonal width. After the administration were completed, mice were weighed, euthanized, and tumours were removed and the weight were taken.
For immunohistochemistry staining, the sections were deparaffinized, rehydrated, and washed in 1% PBS-Tween 20, and then treated with 2% hydrogen peroxide, blocked with 3% goat serum (Life Technology, 16210–064) and incubated for 2 h at room temperature with specific primary antibodies. Then the slides were incubated with streptavidin-HRP (Shanghai Gene Company, GK500705) for 40 min, then stained with DAB (Shanghai Gene Company, GK500705) substrate and counter-stained with haematoxylin. Images were acquired by microscopy (Olympus IX51).
In addition, we also utilised a B16F1 melanoma mouse xenograft model to observe the efficacy of compound 5d on the other tumours. Malignant melanoma is a highly invasive tumour and its immunotherapy has been receiving attention in recent years. As mentioned above, B16F1 is a murine melanoma cell line that expresses IDO1. The mouse xenograft model was established by subcutaneously implanting B16F1 melanoma cells into BALB/c mice and treated with 5d (3.125, 6.25, 12.5 mg/kg, i.g, every day) or the positive control Cis-platinum (1 mg/kg, i.p, every other day). Tumour volumes were measured every two days for 11 days.
Figure 13. Compound 5d suppressed melanoma growth in mice. 1 × 10^6 melanoma cells were transplanted subcutaneously into the armpit of the BALB/c mice. Three days after transplantation, mice were randomly allocated to vehicle control or treatment groups (n = 6). Drugs were administered on days 1–11. (A) Tumour volume and mouse body weight (B) were recorded. After sacrifice, solid tumours were separated and weighed (C, D). Data represent mean ± SEM, n = 6, *p < 0.05, **p < 0.01 vs vehicle.
Analogously, we also performed H&E, IHC and TUNEL experiments on the B16F1 melanoma tissues (Figure 14 and 15).

C=CC(=O)Nc1ccc(S(=O)(=O)NCc2cccc(Cl)c2)cc1 [5d, N-(4-(N-(3-Chlorobenzyl)sulfamoyl)phenyl)acrylamide]
IC50 (IDO1; HeLa cells, IFN-γ induced IDO1, kynurenine readout): 6.26 µM | inhibition at 30 µM (IDO1; percentage inhibition at 30 μM, IFN-γ-treated HeLa cells, kynurenine in media): 91.1% | FoxP3+ Treg cells (flow cytometry) [1]: 2.1% | FoxP3+ Treg cell differentiation (in words) ([1]; Con A, 48 h): significantly reduce FoxP3^+ Treg cell differentiation; also recorded: returned to the initial level | HeLa cell viability (HeLa cells): without affecting the cell viability | IFN-γ expression (IHC) (B16F1 melanoma; B16F1 melanoma tissue): up-regulating IFN-γ expression | granzyme B (IHC) (B16F1 melanoma; B16F1 melanoma tissue): stimulating granzyme B secretion | number of tumour cells (H&E, PCNA, TUNEL) (B16F1 melanoma; B16F1 melanoma tissue): reduce the number of tumour cells by inhibiting proliferation and inducing apoptosis | tumour growth (tumour volume and tumour weight) (B16F1 melanoma; BALB/c mice, 3.125, 6.25, 12.5 mg/kg, i.g, every day, 11 days, vs vehicle): significantly suppressed the growth of tumour in a dose-dependent manner | body weight (B16F1 melanoma; BALB/c mice, 3.125-12.5 mg/kg i.g, 11 days): without significant body weight loss | reduction of average volume of tumour (B16F1 melanoma; BALB/c mice, high dose, 11 days): 34.3%
